We go through 14 compounds from ChEMBL document CHEMBL2203037, “Synthesis and Anti-influenza A Virus Activity of 2,2-Dialkylamantadines and Related Compounds” (ACS Med Chem Lett, 2012).

The source made the active and inactive calls. No cut-off for these calls is given here. Bounds are passed on as bounds.

A short description of data set [1]: Cytotoxicity against dog MDCK cells assessed as cell viability after 72 hrs by MTS assay. It counts as cell-based, Canis lupus familiaris. On the technique in general: Formazan colour is commonly taken as a measure of viable cells.
Data set [2] can be described thus: Cytotoxicity against dog MDCK cells assessed as cell morphology alterations. It counts as cell-based, Canis lupus familiaris.
Data set [3] deals with Mammalian orthoreovirus 1. Put plainly: Antiviral activity against Reovirus-1 by cell based assay. It counts as functional, organism-based.
A further data set has as its system Coxsackievirus B4. The data set can be described thus: Antiviral activity against Coxsackievirus B4 by cell based assay. In kind it is functional, organism-based.
The test system of the next data set is Punta Toro virus. The data set can be described thus: Antiviral activity against Punta Toro virus by cell based assay. It counts as functional, organism-based.
The subject of the next data set is Sindbis virus. Put plainly: Antiviral activity against Sindbis virus by cell based assay. In kind it is functional, organism-based.
Data set [4] concerns Vesicular stomatitis virus. Put plainly: Antiviral activity against Vesicular stomatitis virus by cell based assay. It counts as functional, organism-based.
In the next data set the test system is Human respirovirus 3. Put plainly: Antiviral activity against Parainfluenza-3 virus by cell based assay. It counts as functional, organism-based.
Data set [5] concerns Respiratory syncytial virus. The data set can be described thus: Antiviral activity against Respiratory syncytial virus by cell based assay. In kind it is functional, organism-based.
A further data set has as its system Feline coronavirus. The data set can be described thus: Antiviral activity against Feline coronavirus by cell based assay. In kind it is functional, organism-based.
In another data set the test system is Vaccinia virus. Put plainly: Antiviral activity against Vaccinia virus by cell based assay. In kind it is functional, organism-based. The conditions noted are these: Orthopoxvirus vaccinia.
The next data set deals with Simplexvirus. Put plainly: Antiviral activity against Herpes simplex virus by cell based assay. In kind it is functional, organism-based.
The subject of data set [6] is H3N2 subtype. Put plainly: Antiviral activity against Influenza A virus (A/HK/7/87 (H3N2)) infected in MDCK cells assessed as virus-induced cytopathic effect by MTS assay. In kind it is functional, organism-based, A/Hong Kong/7/1987(H3N2). As to conditions: Influenza A virus, A/Hong Kong/7/1987(H3N2), MDCK. A general note: Damage to the host cells serves as the signal in cytopathic effect assays.

Data set [7] has as its system H3N2 subtype. Put plainly: Antiviral activity against Influenza A virus (A/HK/7/87 (H3N2)) infected in MDCK cells assessed as virus-induced cytopathic effect measured 3 days post infection by microscopic analysis. The conditions noted are these: A/Hong Kong/7/1987(H3N2), 72 h. It counts as functional, organism-based.

For the compound `CCCC1(CCC)C2CC3CC(C2)CC1(N)C3`, the half-maximal cytotoxic concentration (CC50) at 72 h in data set [1] amounted to 2.9 µM. In addition, the MCC in data set [2] stood at 6 µM. Also, the outcome (in data set [3]; in the data set with Coxsackievirus B4; in the data set on Punta Toro virus; with Sindbis virus; in data set [4]; in the data set with Human respirovirus 3) was inactive. Also, the outcome (in [5]; in the data set with Feline coronavirus; in the data set on Vaccinia virus; with Simplexvirus) was inactive. For the same compound, the EC50 with H3N2 subtype [6] and with H3N2 subtype [7] was over 100 µM in each case.
For `CC1(C)C2CC3CC(C2)CC1(N1CCCCC1)C3`, in data set [1], the 50% cytotoxic concentration (CC50) at 72 h was determined as 0.8 µM. The MCC in data set [2] was found to be 4 µM. In addition, the result (in [3]; in the data set on Coxsackievirus B4; with Punta Toro virus; with Sindbis virus; in [4]; with Human respirovirus 3) was inactive. For the same compound, the outcome (in [5]; in the data set on Feline coronavirus; with Vaccinia virus; in the data set on Simplexvirus) was inactive. The EC50 in the data set on H3N2 subtype [6] and in the data set on H3N2 subtype [7] was over 100 µM each time.
In the case of `CN(C)C12CC3CC(CC(C3)C1(C)C)C2`, the CC50 at 72 h in [1] came to 68 µM. In addition, the MCC in [2] was determined as 110 µM. Also, the result (in [3]; with Coxsackievirus B4; in the data set on Punta Toro virus; in the data set with Sindbis virus; in data set [4]; with Human respirovirus 3) was inactive. Moreover, the outcome (in data set [5]; with Feline coronavirus; in the data set on Vaccinia virus; in the data set on Simplexvirus) was inactive. Further, the concentration for a half-maximal effect (EC50) in the data set on H3N2 subtype [6] and in the data set with H3N2 subtype [7] was over 100 µM in each case.
As for `CC1(C)C2CC3CC(C2)CC1(N)C3`, in [1], the CC50 at 72 h turned out to be 77 µM. In addition, the MCC in data set [2] was 167 µM. For the same compound, the outcome (in [3]; with Coxsackievirus B4; in the data set on Punta Toro virus; with Sindbis virus; in [4]; in the data set with Human respirovirus 3) was inactive. The result (in data set [5]; with Feline coronavirus; in the data set with Vaccinia virus; in the data set with Simplexvirus) was inactive. Besides, the 50% effective concentration (EC50) with H3N2 subtype [6] and with H3N2 subtype [7] was over 100 µM each time.
`CC1(C)C2CC3CC(C2)CC1(NCc1ccccc1)C3`: the CC50 at 72 h in [1] amounted to 1.1 µM. The MCC in [2] amounted to 4 µM. Also, the outcome (in data set [3]; with Coxsackievirus B4; in the data set with Punta Toro virus; with Sindbis virus; in data set [4]; with Human respirovirus 3) was inactive. Also, the result (in [5]; in the data set with Feline coronavirus; in the data set on Vaccinia virus; with Simplexvirus) was inactive. The EC50 with H3N2 subtype [6] and in the data set on H3N2 subtype [7] was over 100 µM throughout.
For the compound `CC(C)C1C2CC3CC(C2)CC1(N(C)C)C3` (stereo unspecified), the CC50 at 72 h in data set [1] is at least 100 µM. In data set [2], the MCC was over 100 µM. The outcome (in data set [3]; with Coxsackievirus B4; with Punta Toro virus; with Sindbis virus; in data set [4]; with Human respirovirus 3) was inactive. The result (in data set [5]; in the data set on Feline coronavirus; in the data set with Vaccinia virus; with Simplexvirus) was inactive. Moreover, the EC50 in the data set with H3N2 subtype [6] and with H3N2 subtype [7] was over 100 µM throughout.
Take `CN(Cc1ccccc1)C12CC3CC(CC(C3)C1(C)C)C2`: the CC50 at 72 h in data set [1] is 0.7 µM. Further, in data set [2], the MCC worked out at 4 µM. Also, the result (in data set [3]; in the data set with Coxsackievirus B4; with Punta Toro virus; in the data set with Sindbis virus; in [4]; in the data set on Human respirovirus 3) was inactive. Moreover, the outcome (in data set [5]; in the data set on Feline coronavirus; with Vaccinia virus; in the data set with Simplexvirus) was inactive. Also, the EC50 in the data set with H3N2 subtype [6] and in the data set with H3N2 subtype [7] was over 100 µM in each case.
In the case of `CN(C)C12CC3(C)CC(CC3(C)C1)C2(C)C`, in [1], the 50% cytotoxic concentration (CC50) at 72 h is over 100 µM. Moreover, the MCC in data set [2] is at least 100 µM. The result (in data set [3]; in the data set on Coxsackievirus B4; in the data set with Punta Toro virus; with Sindbis virus; in data set [4]; in the data set on Human respirovirus 3) was inactive. Further, the outcome (in [5]; in the data set on Feline coronavirus; with Vaccinia virus; in the data set on Simplexvirus) was inactive. In addition, the EC50 with H3N2 subtype [6] and in the data set with H3N2 subtype [7] was over 100 µM in each case.
Take `CCCC1(CCC)C2CC3CC(C2)CC1(N(C)C)C3`: in [1], the half-maximal cytotoxic concentration (CC50) at 72 h is over 100 µM. In addition, in data set [2], the MCC is at least 100 µM. Besides, the outcome (in data set [3]; with Coxsackievirus B4; with Punta Toro virus; with Sindbis virus; in [4]; in the data set on Human respirovirus 3) was inactive. The result (in data set [5]; in the data set on Feline coronavirus; in the data set with Vaccinia virus; in the data set with Simplexvirus) was inactive. The 50% effective concentration (EC50) with H3N2 subtype [6] and in the data set on H3N2 subtype [7] was over 100 µM each time.
Consider `CC(C)C1C2CC3CC(C2)CC1(N)C3` (stereo unspecified), for which the CC50 at 72 h in data set [1] turned out to be 8.6 µM. For the same compound, in data set [2], the MCC is 5.3 µM. The result (in data set [3]; in the data set with Coxsackievirus B4; in the data set with Punta Toro virus; with Sindbis virus; in data set [4]; in the data set with Human respirovirus 3) was inactive. Also, the result (in data set [5]; in the data set on Feline coronavirus; in the data set with Vaccinia virus; in the data set with Simplexvirus) was inactive. In addition, the 50% effective concentration (EC50) in the data set on H3N2 subtype [6] and with H3N2 subtype [7] was over 100 µM throughout.
Take `CNC12CC3CC(CC(C3)C1(C)C)C2`: the cytotoxic concentration (CC50) at 72 h in [1] came to 70 µM. In data set [2], the MCC was 110 µM. For the same compound, the result (in data set [3]; with Coxsackievirus B4; in the data set with Punta Toro virus; in the data set with Sindbis virus; in data set [4]; in the data set with Human respirovirus 3) was inactive. Further, the result (in data set [5]; with Feline coronavirus; in the data set with Vaccinia virus; in the data set with Simplexvirus) was inactive. The concentration for a half-maximal effect (EC50) in the data set with H3N2 subtype [6] and in the data set on H3N2 subtype [7] was over 100 µM each time.
Take `CCNC12CC3CC(CC(C3)C1(C)C)C2`: in [1], the CC50 at 72 h was determined as 85 µM. The MCC in data set [2] was found to be 200 µM. Besides, the outcome (in data set [3]; in the data set on Coxsackievirus B4; with Punta Toro virus; with Sindbis virus; in data set [4]; with Human respirovirus 3) was inactive. The outcome (in data set [5]; in the data set on Feline coronavirus; in the data set with Vaccinia virus; in the data set with Simplexvirus) was inactive. Besides, the half-maximal effective concentration (EC50) in the data set on H3N2 subtype [6] and in the data set on H3N2 subtype [7] was over 100 µM each time.
Consider `NC12CC3CC(CC(C3)C13CCCCC3)C2`, for which, in [1], the CC50 at 72 h is 4.7 µM. Further, the MCC in [2] came to 6 µM. Also, the result (in [3]; with Coxsackievirus B4; in the data set on Punta Toro virus; with Sindbis virus; in data set [4]; in the data set on Human respirovirus 3) was inactive. Also, the result (in data set [5]; with Feline coronavirus; with Vaccinia virus; in the data set with Simplexvirus) was inactive. The half-maximal effective concentration (EC50) with H3N2 subtype [6] and with H3N2 subtype [7] was over 100 µM in each case.
With `CC12CC3CC1(C)CC(N)(C2)C3(C)C`, in data set [1], the CC50 at 72 h was over 100 µM. In addition, the MCC in data set [2] was at least 100 µM. In addition, the result (in data set [3]; in the data set with Coxsackievirus B4; in the data set with Punta Toro virus; in the data set with Sindbis virus; in data set [4]; with Human respirovirus 3) was inactive. In addition, the result (in data set [5]; with Feline coronavirus; in the data set on Vaccinia virus; in the data set with Simplexvirus) was inactive. The EC50 in the data set with H3N2 subtype [6] and in the data set on H3N2 subtype [7] was over 100 µM throughout.

Usually CC50 stands for the concentration that lowers cell viability or growth by half. One may read the EC50 as the midpoint of the concentration-response curve.
